The record followed here is patent US5541213A, “Propenoic acid derivatives diazole propenoic acid compounds which have useful pharmaceutical utility” (Eisai Co., Ltd., priority 1993, dated 1996).

In assay [1] the test system is Fisher 344 male rats (glycerol-induced renal trouble model). In words: Activity against glycerol-induced renal trouble model. The format is in vivo, rat. The settings on record: 0.3 mg/5 ml/kg orally 60 minutes before 50% glycerol i.m. 10 ml/kg, blood sampled after about 24 hours. Here is the method: Fisher 344 male rats aged 8 weeks and weighing 200 to 230 g were kept without water for 18 hours prior to the use. Thereafter, the test compound was orally administered forcedly to the test group of rats in an amount of 0.3 mg/5 ml/kg, while a solvent [2% Tween 80 solution] to the control group of rats in an amount of 5 ml/kg. After 60 minutes from the administration of the test compound or solvent, a 50% solution of glycerol in physiological saline was intramuscularly administered to each rat through both left and right femoral muscles in an amount of 10 ml of kg. After the completion of the intramuscular administration, the rats were watered. After about 24 hours, the rats were etherized and blood was sampled from each rat. The blood samples thus prepared were each centrifuged to collect serum, which was analyzed for urea nitrogen and creatinine.

Assay [2] relates to Fisher 344 male rats (cisplatin-induced trouble model). As to the kind of experiment: Activity against cisplatin-induced gastric trouble model. The assay is classed as in vivo, rat. The settings on record: cisplatin 6 mg/5 ml/kg s.c., 1 mg/5 ml/kg orally, repeated over four days, blood sampled on the fifth day. Here is the method: Cisplatin was subcutaneously administered to Fisher 344 male rats aged 7 weeks and weighing 170 to 200 g in an amount of 6 mg/5 ml/kg. Immediately after the administration, the test compound was orally administered forcedly to the test group of rats in an amount of 1 mg/5 ml/kg, while a solvent (2% Tween 80 solution) to the control group of rats in an amount of 5 ml/kg. Six hours after the administration, the administration of the test compound and the solvent to the test group and the control group respectively was conducted in a similar manner to that described above. Thereafter, the same administration was repeated on the next day twice, and on the third and forth days each once. On the fifth day, the rats were etherized and blood was sampled from each rat. The blood samples thus prepared were analyzed for serum urea nitrogen and creatinine.

For assay [3], the system named is Fisher male rats. In words: Diuretic activity. The format is in vivo, rat. Particulars: 1 mg/25 ml/kg orally in 0.4% Tween 80 in physiological saline; urine collected for 2 hours. Here is the method:
Fisher male rats aged 8 weeks and weighing 190 to 210 g were fasted for 18 hours prior to the use. The test compound was orally administered forcedly to the test group of rats in a state dispersed in a 0.4% solution of Tween 80 in physiological saline in an amount of 1 mg/25 ml/kg, while a 0.4% solution of Tween 80 in physiological saline to the control group of rats in the same amount as that administered to the test group. Immediately after the administration, the rats were put in individual metabolism cages respectively to collect urine from each rat for 2 hours. The urinary volume of each rat was determined and thereafter the urine was examined for uric acid concentration to calculate the amount of uric acid egested. The control group was composed of six rats, while the test group three rats. The amounts of uric acid excreted from the rats of each group were averaged out to determine the increment of the excretion of uric acid based on the averages.

For assay [4], the target named is T1, right atrium of Hartley male guinea pigs (heart rate lowering effect of adenosine) (Cavia porcellus, UniProt P47745).
T1 construct: the right atrium was extirpated from the heart; from tissue; host or cells: isolated right atrium of Hartley male guinea pigs
T1 sequence (P47745 1-326): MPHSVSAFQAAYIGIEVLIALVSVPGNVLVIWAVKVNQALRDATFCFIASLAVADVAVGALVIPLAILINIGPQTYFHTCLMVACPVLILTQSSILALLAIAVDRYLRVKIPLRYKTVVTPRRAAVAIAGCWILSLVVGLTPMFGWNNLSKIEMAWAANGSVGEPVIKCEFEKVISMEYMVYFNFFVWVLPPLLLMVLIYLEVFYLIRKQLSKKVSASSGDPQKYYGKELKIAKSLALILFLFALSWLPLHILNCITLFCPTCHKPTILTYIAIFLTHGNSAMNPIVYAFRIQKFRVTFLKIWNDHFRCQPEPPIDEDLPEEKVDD
As to the kind of experiment: Adenosine antagonism (heart rate lowering effect of adenosine in isolated right atrium). Particulars: guinea pig right atrium, 37° C., dipyridamole added, 20 minutes with test compound, adenosine added cumulatively; spontaneous heart rate; read-out: pA2 value (adenosine antagonism) (converted). The assay is classed as cell-based. Here is the method: Hartley male guinea pigs weighing 250 to 400 g were beaten to death. The heart was immediately extirpated from each guinea pig and put in the Krebs-Heuseleit solution saturated with a gas mixture comprising 95% of oxygen and 5% of carbon dioxide. Thereafter, the right atrium was extirpated from the heart. The samples thus preparer were each vertically suspended in a Magnus tube (capacity: 6 ml) filled with a nutrient liquid at 37° C. and the same gas mixture as that used above was passed through the tube.
The change in tension was isometrically determined under a load of about 0.5 g and the spontaneous heart rate was measured and recorded with a cardiotachometer by utilizing the signal of the change as a trigger.
After the stabilization of the sample, 10^-5 mol of dipyridamole was added to each Magnus tube. Thereafter, the test compound was added directly to each of the Magnus tubes of the test group in a state dissolved in DMSO, while a solvent (DMSO) to each of the Magnus tubes of the control group in the same amount as that added to each Magnus tube of the test group. The resulting Magnus tubes was allowed to stand for 20 minutes. […]
The EC50 value with respect to the heart rate lowering effect of adenosine was calculated and the adenosine antagonism was represented by pA2 value (-log M).

Molecules are shown by their SMILES.

In the case of `O=C(/C=C/c1c[nH]nc1-c1cccc(F)c1)NC(Cc1ccccn1)c1cc(Cl)ccn1` (single isomer, unassigned; (+)) [Example 2, (+)-(E)-N-{1-(4-Chloropyridin-2-yl)-2-(pyridin-2-yl)ethyl}-3-{3-(3-fluorophenyl)-1H-pyrazol-4-yl}-2-propenamide], the values for the serum creatinine in assay [1] (*P < 0.05 vs control (4.76 ± 0.21)) and in assay [2] (*P < 0.05 vs control (2.15 ± 0.16)) were 3.47 ± 0.30 mg/dL and 1.49 ± 0.04 mg/dL, respectively. Besides, the figures for the Serum urea nitrogen in assay [1] (*P < 0.05 vs control (185.4 ± 3.2)) and in assay [2] (*P < 0.05 vs control (93.4 ± 6.5)) were 142.4 ± 10.5 mg/dL and 52.9 ± 2.3 mg/dL, respectively. Besides, the “amount of uric acid excreted (control group taken as 100%)” value in assay [3] was determined as 166%. Moreover, the “urinary volume of the test group (control group taken as 100%)” value in assay [3] is 605%. For the same compound, the Kb in assay [4] is 0.0389 nM.
